Laboratory results taken from article PMC11357992, “Non-invasive mapping of systemic neutrophil dynamics upon cardiovascular injury” (Nature Cardiovascular Research, 2023).
Values joined by “and” are separate entries in the source; they are usually repeats but may differ in a detail not shown here. Equal values may be shown once. Where no end group is shown, it is not given here. Side-chain parts run from the residue outwards. rhodamine‑labelled PEGylated perfluoro‑15‑crown‑5 ether nanoemulsion = not defined here; carboxyfluorescein = N-terminal fluorescence label (CF)

What was measured:
human neutrophils = assay: 1H/19F MRI of human neutrophils incubated with hNPPFCs/ConPFCs (healthy and STEMI); type: cell-based; settings: versus ConPFC controls
Protocol: After the incubation period, cells were subjected to density gradient centrifugation to separate PFC-loaded cells from free PFCs. Afterward, samples were analyzed by MRI to determine the ^19F signal within the cell layer as described previously.
To determine PFC uptake by human neutrophils by ^19F MRI, cells were isolated from 10 ml of whole blood by density centrifugation. Subsequently, neutrophils (5 × 10^6) were resuspended in 3 ml DMEM and incubated for up to 8 h at 37 °C under constant motion with 10 µl ^hNPPFCs. Afterward, cells were centrifuged at 350g, washed three times with PBS, resuspended in 1 ml MACS buffer, purified by Percoll gradient centrifugation and analyzed by ^1H/^19F MRI.

[1] = 19F content of PFCs by 19F MRI; type: physicochemical; settings: panel B raw data, single replicates #1-#3
Protocol: Extended Data Fig. 8 Physicochemical properties and cellular uptake of ^hNPPFCs. a, Cellular uptake of ^hNPPFCs by human monocyte subsets and neutrophils: Human immune cells isolated from the blood of healthy volunteers were incubated with ^hNPPFCs. Subsequently, cells were stained with CD11b, CD14 and CD16 to differentiate between neutrophils (red), classical monocytes (gray) and non-classical monocytes (blue) and the cells were analyzed by flow cytometry. The cellular uptake of ^hNPPFCs was determined under unstimulated conditions (top) and after treatment with 1 µg/ml LPS (bottom). b, Physicochemical properties of the generated nanotracers: Characterization of size, size distribution and ζ potential of ^MalPFCs and targeting PFCs (^hNPPFCs, ^ConPFCs) by dynamic light scattering (DLS). The rhodamine fluorescence signal of the PCS was determined by IVIS imaging and the ^19F content by ^19F MRI. c-e, Cryo transmission electron microscopy of the generated nanotracers: c, Cryo transmission electron microscopy (cryo-TEM) of ^hNPPFCs and ^ConPFCs. Graphs: The diameter of the PFCs was determined manually from three images categorized into 25 nm groups. […] The number of PFCs and liposomes was manually determined (n = 4/5 images). […]

bone marrow neutrophils = assay: In situ labeling of bone marrow neutrophils and tracking after MI, 1H/19F MRI of bone marrow; type: in vivo, mouse
Protocol: For labeling of neutrophils before MI, mice were anesthetized (1.5% isoflurane) and 1 mmol per kg BW PFCs were injected intravenously via the tail vein on 3 consecutive days. Induction of MI was essentially carried out as previously described. For inhibiting the egress of neutrophils from the bone marrow in a subset of experiments, a cocktail of neutralizing antibodies was injected i.p. 1 h before and 4 h after MI (CXCL1, CXCL2, G-CSF, GM-CSF, 50 µg each, Thermo Fisher). To generate neutropenic mice, 48 and 24 h before MI, 500 µg of the Ly6G-depletion antibody (BioXcell, clone 1A8) was injected i.p. in independent experiments.
All experiments were performed with a vertical 9.4 T Bruker AVANCE^III Wide Bore NMR spectrometer (Bruker) driven by ParaVision 5.1 and operating at frequencies of 400.21 MHz for ^1H measurements and 376.54 MHz for ^19F measurements using a Bruker microimaging unit, Micro2.5, with actively shielded gradient sets (1.5 T m^−1). Data were acquired using a 25-mm quadrature ^19F resonator with one channel tunable to both ^1H and ^19F. Mice were anesthetized with 1.5% isoflurane and kept at 37 °C. After acquisition of morphological ^1H images, the resonator was tuned to ^19F, and anatomically matching ^19F images were recorded essentially as described previously. […]
Slice packages were placed in sagittal orientation to cover the complete bone marrow in the tibia and femur in both legs using the following scan details: ^1H RARE, TR = 2,000 ms, FOV = 4.00 × 2.56 cm^2, matrix = 256 × 256, ST = 1 mm, tAcq = 1 min; ^19F RARE, TR = 2,500 ms, FOV = 4.00 × 2.56 cm^2, matrix = 64 × 64, ST = 3 mm, tAcq = 10 min.
Extended Data Fig. 4 Experimental timeline and whole body ^1H/^19F MRI of a ^mNPPFC-treated mouse. a, To label neutrophils within the bone marrow, ^mNPPFCs (or ^ConPFCs as control) were intravenously injected on three consecutive days (day −3, −2, −1) followed by ^1H/^19F MRI of the bone marrow on day 0. Subsequently, MI was induced and bone marrow and the infarcted heart were analyzed by combined ^1H/^19F MRI 24 h later. b, In separate experiments, neutralizing antibodies against CXCL1, CXCL2, G-CSF and GM-CSF were injected intraperitoneally (i. p.; 50 µg) 1 h before and 4 h post induction of MI to inhibit the MI-stimulated egress of neutrophils from the bone marrow and their infiltration into the heart. c, To determine the whole body biodistribution of ^mNPPFCs, ^mNPPFCs were intravenously injected daily over three consecutive days. Afterwards, whole body ^1H/^19F MRI measurements were performed to visualize the labelled neutrophils in the different bone marrow compartments. The bright ^19F spot in the middle represents the liver – an organ known to be as major site of (PFC) nanoparticle deposition.
Extended Data Fig. 5 ^mNPPFC incorporation into the bone marrow and cardiac function after MI. a, Impact of neutrophil depletion on ^mNPPFC incorporation into the bone marrow: For in vivo labeling of bone marrow neutrophils, ^mNPPFCs were injected intravenously and 24 h later the ^19F signal within the femur and tibia was determined (gray). […] The marrow mainly belongs to the diaphysis whereas the growth of the bones takes place at the inner and outer epiphysis. […]

Substance: hNPPFCs: PEGylated rhodamine-labeled perfluorocarbon nanoemulsion coupled with human neutrophil-specific peptide hNP (carboxyfluorescein-DLVTSKLQVGGGC; also: C-terminal Cys coupled via maleimide-PEG2000-DSPE to rhodamine-labelled perfluorocarbon nanoemulsion)
- 19F signal of human neutrophils exposed to PFCs (1H/19F MRI) (human neutrophils): significantly stronger
- 19F amount [1]: 6.421 and 6.014 and 6.958

Substance: mNPPFCs: PEGylated rhodamine-labeled perfluoro-15-crown-5 ether nanoemulsion (maleimide PFCs) coupled with murine neutrophil-specific peptide mNP (carboxyfluorescein-DFYKPMPNLRITGGGC([maleimide‑PEG2000‑DSPE-rhodamine‑labelled PEGylated perfluoro‑15‑crown‑5 ether nanoemulsion]); reading uncertain; also: printed as DFYKPMPNLRIT-GGG-C)
- 19F signal of bone marrow, Post (bone marrow neutrophils; 1H/19F MRI, after MI, panel B raw data, single animals): 384270 and 284234 and 342343 and 246818 and 294364 and 237217 and 352300
- 19F signal of bone marrow, Pre (bone marrow neutrophils; 1H/19F MRI, before MI, panel B raw data, single animals): 555612 and 765758 and 385254 and 440946 and 378880 and 354237 and 356979 and 487088 and 602276
- 19F signal within the femur and tibia (bone marrow) (bone marrow neutrophils; Ctrl (no depletion), 24 h after i.v. mNPPFC injection, individual experiments): 1.88E+06 and 1.21E+06 and 1.06E+06 and 1.73E+06
- change of bone marrow 19F signal 24 h after MI (bone marrow neutrophils; femur and tibia, daily i.v. injections over 3 d before MI): substantial reduction
- BM 19F signal post MI normalized to the 19F signals detected before induction of MI (bone marrow neutrophils; mNPPFC-labeled mice, Nabs = plus antibodies against CXCL1, CXCL2, G-CSF, GM-CSF i.p. 1 h before and 4 h post MI, individual experiments): 69.1617 and 64.46 and 69.676 and 82.4597 and 48.7011 and 58.4948 and 73.1944 and 76.1165
